What all share (type): functional
The subject of assay [1] is ECa-109 cell line. Put plainly: Cytotoxicity ratio was evaluated against tumor cell line ECa-109 (Human esophagus cancer) after 72 hr incubation relative to paclitaxel (ED50 = […]).
The test system of assay [2] is MCF7. Nature of the assay: Cytotoxicity ratio was evaluated against human tumor cell line MCF-7 (Human breast cancer) after 72 hr incubation relative to paclitaxel (ED50 = […]).
The test system of assay [3] is SK-OV-3. Put plainly: Cytotoxicity ratio was evaluated against human tumor cell line SKOV3 (Human ovarian cancer) after 72 hr incubation relative to paclitaxel (ED50 = […]).
Assay [4] deals with Tubulin alpha chain (Sus scrofa) (UniProt P02550). Put plainly: Effective dose which causes polymerization of 50% of the tubulin present at 37 degree C in Microtubule assembly assay.
The subject of assay [5] is WiDr. Nature of the assay: Cytotoxicity ratio was evaluated against human tumor cell line WIDR (Human colon cancer) after 72 hr incubation relative to paclitaxel (ED50 = […]).
The test system of assay [6] is ECa-109 cell line. Nature of the assay: Cytotoxicity ratio was evaluated against tumor cell line ECa-109 (Human esophagus cancer) after 72 hr incubation.
In assay [7] the test system is MCF7. Nature of the assay: Cytotoxicity ratio was evaluated against human tumor cell line MCF-7 (Human breast cancer) after 72 h incubation.
Assay [8] concerns SK-OV-3. Put plainly: Cytotoxicity ratio was evaluated against human tumor cell line SKOV3 (Human ovarian cancer) after 72 hr incubation.
Assay [9] deals with WiDr. Put plainly: Cytotoxicity ratio was evaluated against human tumor cell line WIDR (Human colon cancer) after 72 hr incubation.

Chain of Tubulin alpha chain (Sus scrofa) (P02550 whole entry, looked up): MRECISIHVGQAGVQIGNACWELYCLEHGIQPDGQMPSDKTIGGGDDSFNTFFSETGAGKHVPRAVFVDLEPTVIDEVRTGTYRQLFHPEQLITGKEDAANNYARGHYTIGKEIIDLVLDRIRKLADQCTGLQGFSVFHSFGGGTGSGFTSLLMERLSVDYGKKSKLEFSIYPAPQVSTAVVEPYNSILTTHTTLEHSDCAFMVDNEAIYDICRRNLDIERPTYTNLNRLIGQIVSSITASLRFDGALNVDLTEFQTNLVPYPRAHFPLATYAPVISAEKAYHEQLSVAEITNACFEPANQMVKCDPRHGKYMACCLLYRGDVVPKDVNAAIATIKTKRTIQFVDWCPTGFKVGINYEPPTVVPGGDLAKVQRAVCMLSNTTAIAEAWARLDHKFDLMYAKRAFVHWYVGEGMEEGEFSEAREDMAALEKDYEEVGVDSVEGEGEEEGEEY

Take `CC(=O)O[C@@H]1C2=C(C)[C@@H](OC(=O)[C@H](O)[C@@H](NC(=O)c3ccccc3)c3ccccc3)C[C@@](O)([C@@H](OC(=O)c3ccccc3)C3[C@@](C)(CC[C@H]4OC[C@@]34OC(C)=O)[C@H]1OC(=O)CCC(=O)OC[C@H]1O[C@@H](n3cc(Br)c(=O)[nH]c3=O)[C@H](O)[C@@H]1O)C2(C)C` (stereo not given in full): the Ratio in the assay on ECa-109 cell line [1] is listed as 0.16; in the assay on MCF7 [2] it was 2.64; in the assay with SK-OV-3 [3], 4.06; in the assay on WiDr [5], 3.87. In [4], this molecule registered an ED50 of over 15000 nM.
For the molecule `CC(=O)O[C@@H]1C2=C(C)[C@@H](OC(=O)[C@H](O)[C@@H](NC(=O)c3ccccc3)c3ccccc3)C[C@@](O)([C@@H](OC(=O)c3ccccc3)C3[C@@](C)(CC[C@H]4OC[C@@]34OC(C)=O)[C@H]1OC(=O)CCC(=O)OC[C@H]1O[C@@H](n3cc(C)c(=O)[nH]c3=O)C[C@@H]1N=[N+]=[N-])C2(C)C` (stereo not given in full), the Ratio in the assay with ECa-109 cell line [1] amounted to 3.54; in the assay on MCF7 [2], 3.13; in the assay on SK-OV-3 [3], 3.41; in the assay with WiDr [5], 2.62. For the same molecule, the ED50 in assay [4] is over 20000 nM.
As for `CC(=O)O[C@@H]1C2=C(C)[C@@H](OC(=O)[C@H](O)[C@@H](NC(=O)c3ccccc3)c3ccccc3)C[C@@](O)([C@@H](OC(=O)c3ccccc3)C3[C@@](C)(CC[C@H]4OC[C@@]34OC(C)=O)[C@H]1OC(=O)CCC(=O)OC[C@H]1O[C@@H](n3ccc(NC(=O)c4ccccc4)nc3=O)C[C@@H]1O)C2(C)C` (stereo not given in full), the Ratio worked out at 1.03 in the assay on ECa-109 cell line [1], 1.63 in the assay on MCF7 [2], 1.98 in the assay on SK-OV-3 [3] and 2.43 with WiDr [5]. This molecule also came in with an ED50 in assay [4] of 900 nM.
For the molecule `CC(=O)O[C@@H]1C2=C(C)[C@@H](OC(=O)[C@H](O)[C@@H](NC(=O)c3ccccc3)c3ccccc3)C[C@@](O)([C@@H](OC(=O)c3ccccc3)C3[C@@](C)(CC[C@H]4OC[C@@]34OC(C)=O)[C@H]1OC(=O)CCC(=O)OC[C@H]1O[C@@H](n3cnc4c(Cl)ncnc43)[C@H](O)[C@@H]1O)C2(C)C` (stereo not given in full), the Ratio was found to be 0.18 in the assay with ECa-109 cell line [1], 3.68 with MCF7 [2], 2.24 in the assay on SK-OV-3 [3] and 2.16 in the assay with WiDr [5]. Further, the ED50 in assay [4] is over 15000 nM.
With `CC(=O)O[C@H]1C(=O)[C@@]2(C)[C@H]([C@H](OC(=O)c3ccccc3)[C@]3(O)C[C@H](OC(=O)[C@H](O)[C@@H](NC(=O)c4ccccc4)c4ccccc4)C(C)=C1C3(C)C)[C@]1(OC(C)=O)CO[C@@H]1C[C@@H]2O` [PACLITAXEL], the Ratio with ECa-109 cell line [6], in the assay on MCF7 [7], in the assay on SK-OV-3 [8] and with WiDr [9] was 1 each time. In assay [4], this molecule showed an ED50 of 400 nM.

Values taken from ChEMBL document CHEMBL1133418, “Synthesis and biological evaluation of novel 9-functional heterocyclic coupled 7-deoxy-9-dihydropaclitaxel analogue” (2000).
